Test results published in paper PMC5218480 (PLoS ONE, 2017).

System: MV-4-11 cells
Experiment: Gene expression microarray analysis (Affymetrix PrimeView) and GSEA
Format: cell-based, human
Design: RFU PODN (11730768_x_at) / Fold change /veh PODN (11730768_x_at) / RFU LINC00158 (11744669_a_at) / Fold change /veh LINC00158 (11744669_a_at) / RFU DUSP10 (11751237_a_at) / Fold change /veh DUSP10 (11751237_a_at) / RFU ID3 (11757404_x_at) / Fold change /veh ID3 (11757404_x_at) / RFU PLEKHG5 (11737974_s_at) / Fold change /veh PLEKHG5 (11737974_s_at) / RFU LRRC4B (11730491_at) / Fold change /veh LRRC4B (11730491_at) / RFU GIMAP4 (11747438_a_at) / Fold change /veh GIMAP4 (11747438_a_at) / RFU KRT8 (11758183_x_at) / Fold change /veh KRT8 (11758183_x_at) / RFU CNN1 (11734310_a_at) / Fold change /veh CNN1 (11734310_a_at) / RFU VPS37D (11726825_at) / Fold change /veh VPS37D (11726825_at) / RFU C10orf10 (11716522_x_at) / Fold change /veh C10orf10 (11716522_x_at) / RFU KIR2DL2 /// KIR2DL4 /// KIR2DL5A /// KIR2DL5B /// KIR2DS1 /// KIR2DS2 /// KIR2DS3 /// KIR2DS4 /// KIR3DL3 /// KIR3DL3 /// KIR3DS1 (11738374_at) / Fold change /veh KIR2DL2 /// KIR2DL4 /// KIR2DL5A /// KIR2DL5B /// KIR2DS1 /// KIR2DS2 /// KIR2DS3 /// KIR2DS4 /// KIR3DL3 /// KIR3DL3 /// KIR3DS1 (11738374_at) / RFU C1QL1 (11718748_at) / Fold change /veh C1QL1 (11718748_at) / RFU TMPRSS4 (11747572_a_at) / Fold change /veh TMPRSS4 (11747572_a_at) / RFU HAMP (11756126_x_at) / Fold change /veh HAMP (11756126_x_at) / RFU RNFT2 (11725882_a_at) / Fold change /veh RNFT2 (11725882_a_at) / RFU NR4A2 (11747474_a_at) / Fold change /veh NR4A2 (11747474_a_at) / RFU ABCC12 (11746883_a_at) / Fold change /veh ABCC12 (11746883_a_at) / RFU TMEM136 (11760407_x_at) / Fold change /veh TMEM136 (11760407_x_at) / RFU CLDN22 /// WWC2 (11732394_at) / Fold change /veh CLDN22 /// WWC2 (11732394_at) / RFU HLA-DPB1 (11760878_x_at) / Fold change /veh HLA-DPB1 (11760878_x_at) / RFU SPINT1 (11716480_a_at) / Fold change /veh SPINT1 (11716480_a_at) / RFU GAP43 (11754022_s_at) / Fold change /veh GAP43 (11754022_s_at) / RFU A4GNT (11735810_at) / Fold change /veh A4GNT (11735810_at) / RFU PRB3 (11715151_x_at) / Fold change /veh PRB3 (11715151_x_at) / RFU TUBB4B (11761932_at) / Fold change /veh TUBB4B (11761932_at) / RFU CAPN14 (11732068_a_at) / Fold change /veh CAPN14 (11732068_a_at) / RFU TMCC2 (11721928_a_at) / Fold change /veh TMCC2 (11721928_a_at) / RFU IRGQ (11745062_a_at) / Fold change /veh IRGQ (11745062_a_at) / RFU FAM174B (11720279_a_at) / Fold change /veh FAM174B (11720279_a_at) / RFU TMPRSS4 (11748680_a_at) / Fold change /veh TMPRSS4 (11748680_a_at) / RFU FAM212B (11763350_a_at) / Fold change /veh FAM212B (11763350_a_at) / RFU PLEKHG5 (11743358_a_at) / Fold change /veh PLEKHG5 (11743358_a_at) / RFU ZSCAN30 (11745921_a_at) / Fold change /veh ZSCAN30 (11745921_a_at) / RFU CMKLR1 (11741424_a_at) / Fold change /veh CMKLR1 (11741424_a_at) / RFU LOC101060620 /// MAPK8IP1 (11723275_at) / Fold change /veh LOC101060620 /// MAPK8IP1 (11723275_at) / RFU SPTSSB (11747773_x_at) / Fold change /veh SPTSSB (11747773_x_at) / RFU PRSS12 (11739890_at) / Fold change /veh PRSS12 (11739890_at) / RFU BIN1 (11741810_x_at) / Fold change /veh BIN1 (11741810_x_at) / RFU WNT11 (11732464_a_at) / Fold change /veh WNT11 (11732464_a_at) / RFU C10orf10 (11716521_a_at) / Fold change /veh C10orf10 (11716521_a_at) / RFU C5orf56 (11738089_at) / Fold change /veh C5orf56 (11738089_at) / RFU CYB561 (11721691_x_at) / Fold change /veh CYB561 (11721691_x_at) / RFU ANKRD19P (11752326_a_at) / Fold change /veh ANKRD19P (11752326_a_at) / RFU OR2T12 /// OR2T33 /// OR2T8 (11738714_s_at) / Fold change /veh OR2T12 /// OR2T33 /// OR2T8 (11738714_s_at) / RFU VCAN (11748164_a_at) / Fold change /veh VCAN (11748164_a_at) / RFU JSRP1 (11732532_at) / Fold change /veh JSRP1 (11732532_at) / RFU KRTAP10-11 (11738290_x_at) / Fold change /veh KRTAP10-11 (11738290_x_at) / RFU MYO3A (11730013_a_at) / Fold change /veh MYO3A (11730013_a_at) / RFU EBF3 (11725865_a_at) / Fold change /veh EBF3 (11725865_a_at) / RFU CAMK2N1 (11719241_x_at) / Fold change /veh CAMK2N1 (11719241_x_at) / RFU C5orf56 (11738088_a_at) / Fold change /veh C5orf56 (11738088_a_at) / RFU OLFML3 (11715873_a_at) / Fold change /veh OLFML3 (11715873_a_at) / RFU LOC100653217 /// NTM (11731650_a_at) / Fold change /veh LOC100653217 /// NTM (11731650_a_at) / RFU MAPK11 (11762145_a_at) / Fold change /veh MAPK11 (11762145_a_at) / RFU FIZ1 (11724087_x_at) / Fold change /veh FIZ1 (11724087_x_at) / RFU OASL (11726364_x_at) / Fold change /veh OASL (11726364_x_at) / RFU SOX15 (11748057_x_at) / Fold change /veh SOX15 (11748057_x_at) / RFU CD79A (11719716_a_at) / Fold change /veh CD79A (11719716_a_at) / RFU HIST1H1D (11736915_at) / Fold change /veh HIST1H1D (11736915_at) / RFU CASKIN2 (11723855_a_at) / Fold change /veh CASKIN2 (11723855_a_at) / RFU LOC730098 (11760151_x_at) / Fold change /veh LOC730098 (11760151_x_at) / RFU OR4N2 (11742367_at) / Fold change /veh OR4N2 (11742367_at) / RFU PRRT2 (11749266_a_at) / Fold change /veh PRRT2 (11749266_a_at) / RFU SNX32 (11753110_a_at) / Fold change /veh SNX32 (11753110_a_at) / RFU CDHR5 (11726645_a_at) / Fold change /veh CDHR5 (11726645_a_at) / RFU RCAN1 (11760418_a_at) / Fold change /veh RCAN1 (11760418_a_at) / RFU FAM167A (11723789_a_at) / Fold change /veh FAM167A (11723789_a_at) / RFU FAM26E (11764081_at) / Fold change /veh FAM26E (11764081_at) / RFU ISYNA1 (11749810_s_at) / Fold change /veh ISYNA1 (11749810_s_at) / RFU ACY1 (11761880_at) / Fold change /veh ACY1 (11761880_at) / RFU 11764098_at / Fold change /veh 11764098_at / RFU SAMD14 (11745864_x_at) / Fold change /veh SAMD14 (11745864_x_at) / RFU NPB (11741838_a_at) / Fold change /veh NPB (11741838_a_at) / RFU TMPRSS6 (11731388_a_at) / Fold change /veh TMPRSS6 (11731388_a_at) / RFU KRTAP10-2 (11738614_at) / Fold change /veh KRTAP10-2 (11738614_at) / RFU ARHGAP8 /// PRR5-ARHGAP8 (11727945_x_at) / Fold change /veh ARHGAP8 /// PRR5-ARHGAP8 (11727945_x_at) / RFU KRTAP5-7 /// NADSYN1 (11734609_at) / Fold change /veh KRTAP5-7 /// NADSYN1 (11734609_at) / RFU RASL12 (11751679_a_at) / Fold change /veh RASL12 (11751679_a_at) / RFU CDKN2B (11736163_a_at) / Fold change /veh CDKN2B (11736163_a_at) / RFU PRF1 (11729649_at) / Fold change /veh PRF1 (11729649_at) / RFU, ZNF638 /// ZNF638-IT1 / Fold change vs veh, ZNF638 /// ZNF638-IT1 / RFU, PANK3 / Fold change vs veh, PANK3 / RFU, SH3YL1 / Fold change vs veh, SH3YL1 / RFU, ZEB2 / Fold change vs veh, ZEB2 / RFU, NRIP1 / Fold change vs veh, NRIP1 / RFU, PTTG1IP / Fold change vs veh, PTTG1IP / RFU, CAPN2 / Fold change vs veh, CAPN2 / RFU, MED14 / Fold change vs veh, MED14 / RFU, SNORA58 / Fold change vs veh, SNORA58 / RFU, C1orf63 / Fold change vs veh, C1orf63 / RFU, LRRFIP1 / Fold change vs veh, LRRFIP1 / RFU, NDUFAF7 / Fold change vs veh, NDUFAF7 / RFU, SLC12A2 / Fold change vs veh, SLC12A2 / RFU, IBTK / Fold change vs veh, IBTK / RFU, ESF1 / Fold change vs veh, ESF1 / Fold change vs veh, TMEM50B / RFU, TAOK1 / Fold change vs veh, TAOK1 / RFU, ACBD3 / Fold change vs veh, ACBD3 / RFU, TMA16 / Fold change vs veh, TMA16 / RFU, RWDD3 / Fold change vs veh, RWDD3 / RFU, BCAT1 / Fold change vs veh, BCAT1 / RFU, EDEM3 / Fold change vs veh, EDEM3 / RFU, TMEM33 / Fold change vs veh, TMEM33 / RFU, WDR75 / Fold change vs veh, WDR75 / RFU, AHCTF1 / Fold change vs veh, AHCTF1 / RFU, TFRC / Fold change vs veh, TFRC / RFU, ZDHHC17 / Fold change vs veh, ZDHHC17 / RFU, NOM1 / Fold change vs veh, NOM1 / RFU, ARL8B / Fold change vs veh, ARL8B / RFU, ZBTB11 / Fold change vs veh, ZBTB11 / RFU, TAMM41 / Fold change vs veh, TAMM41 / RFU, KIAA1704 /// LOC100996395 / Fold change vs veh, KIAA1704 /// LOC100996395 / RFU, ING1 / Fold change vs veh, ING1 / RFU, TRMT61B / Fold change vs veh, TRMT61B / RFU, FUBP3 / Fold change vs veh, FUBP3 / RFU, TP53 / Fold change vs veh, TP53 / RFU, TNKS2 / Fold change vs veh, TNKS2 / RFU, ZFP14 / Fold change vs veh, ZFP14 / RFU, ACTR2 / Fold change vs veh, ACTR2 / RFU, PPP3R1 / Fold change vs veh, PPP3R1 / RFU, PIK3R1 / Fold change vs veh, PIK3R1 / RFU, HNRNPA1 / Fold change vs veh, HNRNPA1 / RFU, RNF170 / Fold change vs veh, RNF170 / RFU, ZNF28 / Fold change vs veh, ZNF28 / RFU, RNGTT / Fold change vs veh, RNGTT / RFU, OGT / Fold change vs veh, OGT / RFU, BRD1 / Fold change vs veh, BRD1 / RFU, MARS / Fold change vs veh, MARS / RFU, ZNF655 / Fold change vs veh, ZNF655 / RFU, FAHD1 / Fold change vs veh, FAHD1 / RFU, BDP1 / Fold change vs veh, BDP1 / RFU, LRRCC1 / Fold change vs veh, LRRCC1 / RFU, ARID1A / Fold change vs veh, ARID1A / RFU, ZNF146 / Fold change vs veh, ZNF146 / RFU, ZNF330 / Fold change vs veh, ZNF330 / RFU, GPN3 / Fold change vs veh, GPN3 / RFU, C9orf123 / Fold change vs veh, C9orf123 / RFU, N4BP2L2 / Fold change vs veh, N4BP2L2 / RFU, ARFIP1 / Fold change vs veh, ARFIP1 / RFU, FAM179B / Fold change vs veh, FAM179B / RFU, BCL10 / Fold change vs veh, BCL10 / RFU, UHRF1BP1L / Fold change vs veh, UHRF1BP1L / RFU, BET1 / Fold change vs veh, BET1 / RFU, CNOT2 / Fold change vs veh, CNOT2 / RFU, ZNF268 / Fold change vs veh, ZNF268 / Fold change vs veh, ZNF507 / RFU, DGCR2 / Fold change vs veh, DGCR2 / RFU, WDSUB1 / Fold change vs veh, WDSUB1 / Fold change vs veh, HSP90B1 /// MIR3652 / RFU, ADSS / Fold change vs veh, ADSS / RFU, GK / Fold change vs veh, GK / RFU, ZNF148 / Fold change vs veh, ZNF148 / RFU, TAF9 / Fold change vs veh, TAF9 / RFU, SLC1A5 / Fold change vs veh, SLC1A5 / RFU, SLMO2 / Fold change vs veh, SLMO2 / RFU, ABCC4 / Fold change vs veh, ABCC4 / RFU, LOC101060439 /// RAP1B / Fold change vs veh, LOC101060439 /// RAP1B / RFU, RFX7 / Fold change vs veh, RFX7 / RFU, GTPBP10 / Fold change vs veh, GTPBP10 / RFU, CNEP1R1 / Fold change vs veh, CNEP1R1 / RFU, BIVM-ERCC5 /// ERCC5 / Fold change vs veh, BIVM-ERCC5 /// ERCC5 / RFU, ILF3 / Fold change vs veh, ILF3 / RFU 11762660_at / Fold change /veh 11762660_at / RFU VCAN (11757783_s_at) / Fold change /veh VCAN (11757783_s_at) / RFU DDX43 (11728927_at) / Fold change /veh DDX43 (11728927_at) / RFU KRT8 (11758188_x_at) / Fold change /veh KRT8 (11758188_x_at) / RFU NKD1 (11759106_at) / Fold change /veh NKD1 (11759106_at) / RFU SRD5A1 (11742802_a_at) / Fold change /veh SRD5A1 (11742802_a_at) / RFU TPSAB1 /// TPSB2 (11721975_s_at) / Fold change /veh TPSAB1 /// TPSB2 (11721975_s_at) / RFU GSTM3 (11746129_a_at) / Fold change /veh GSTM3 (11746129_a_at) / RFU IL23R (11737362_x_at) / Fold change /veh IL23R (11737362_x_at) / RFU TMEM51 (11727254_a_at) / Fold change /veh TMEM51 (11727254_a_at) / RFU PIWIL2 (11732686_x_at) / Fold change /veh PIWIL2 (11732686_x_at) / RFU ORM1 (11744905_x_at) / Fold change /veh ORM1 (11744905_x_at) / RFU CCDC152 (11743942_at) / Fold change /veh CCDC152 (11743942_at) / RFU ECM1 (11717891_a_at) / Fold change /veh ECM1 (11717891_a_at) / RFU IL23R (11748794_a_at) / Fold change /veh IL23R (11748794_a_at) / RFU TNFAIP8L3 (11732012_x_at) / Fold change /veh TNFAIP8L3 (11732012_x_at) / RFU MBOAT4 (11741988_at) / Fold change /veh MBOAT4 (11741988_at) / RFU 11764193_at / Fold change /veh 11764193_at / RFU TMEM53 (11763286_at) / Fold change /veh TMEM53 (11763286_at) / RFU MAGEB2 (11727129_at) / Fold change /veh MAGEB2 (11727129_at) / RFU TMEM200A (11744735_a_at) / Fold change /veh TMEM200A (11744735_a_at) / RFU CCDC152 (11751479_a_at) / Fold change /veh CCDC152 (11751479_a_at) / RFU FAM211A (11726209_a_at) / Fold change /veh FAM211A (11726209_a_at) / RFU RGS16 (11746705_a_at) / Fold change /veh RGS16 (11746705_a_at) / RFU VCAN (11755009_s_at) / Fold change /veh VCAN (11755009_s_at) / RFU RHOB (11743442_s_at) / Fold change /veh RHOB (11743442_s_at) / RFU RGS16 (11720943_a_at) / Fold change /veh RGS16 (11720943_a_at) / RFU RGS16 (11720944_at) / Fold change /veh RGS16 (11720944_at) / RFU, VPS4B / Fold change vs veh, VPS4B / RFU, CREB1 / Fold change vs veh, CREB1 / RFU, DNAJC13 / Fold change vs veh, DNAJC13 / RFU, GNAQ / Fold change vs veh, GNAQ / RFU, CDK5R1 / Fold change vs veh, CDK5R1 / RFU, ZRANB3 / Fold change vs veh, ZRANB3 / RFU, CUL4A / Fold change vs veh, CUL4A / RFU, CCNY / Fold change vs veh, CCNY / RFU, UFL1 / Fold change vs veh, UFL1 / RFU, COG3 / Fold change vs veh, COG3 / RFU, DIAPH2 / Fold change vs veh, DIAPH2 / RFU, SKA2 / Fold change vs veh, SKA2 / RFU, AFF3 / Fold change vs veh, AFF3 / RFU, LMF1 / Fold change vs veh, LMF1 / RFU, IPO11 / Fold change vs veh, IPO11 / RFU, DFFB / Fold change vs veh, DFFB / RFU, FOXP1 / Fold change vs veh, FOXP1 / RFU, CARD8 / Fold change vs veh, CARD8 / RFU, STRN3 / Fold change vs veh, STRN3 / RFU, ADK / Fold change vs veh, ADK / RFU, RASSF2 / Fold change vs veh, RASSF2 / RFU, WIPF1 / Fold change vs veh, WIPF1 / RFU, LARP1B / Fold change vs veh, LARP1B / RFU, RASA1 / Fold change vs veh, RASA1 / RFU, RB1 / Fold change vs veh, RB1 / RFU, PPFIA1 / Fold change vs veh, PPFIA1 / RFU, MAT2A / Fold change vs veh, MAT2A / RFU, CCT5 / Fold change vs veh, CCT5 / RFU, WDR92 / Fold change vs veh, WDR92 / RFU, CUX1 / Fold change vs veh, CUX1 / RFU, TTC7A / Fold change vs veh, TTC7A / RFU, TMEM135 / Fold change vs veh, TMEM135 / RFU, DEPTOR / Fold change vs veh, DEPTOR / RFU, CPM / Fold change vs veh, CPM / RFU, DNAJB6 / Fold change vs veh, DNAJB6 / RFU, CACNA2D3 / Fold change vs veh, CACNA2D3 / RFU, DTX4 / Fold change vs veh, DTX4 / RFU, TFCP2 / Fold change vs veh, TFCP2 / RFU, GMCL1 /// GMCL1P1 / Fold change vs veh, GMCL1 /// GMCL1P1 / RFU, AEBP2 / Fold change vs veh, AEBP2 / RFU, SNHG1 /// SNORD22 /// SNORD25 /// SNORD26 /// SNORD27 /// SNORD28 /// SNORD29 /// SNORD31 / Fold change vs veh, SNHG1 /// SNORD22 /// SNORD25 /// SNORD26 /// SNORD27 /// SNORD28 /// SNORD29 /// SNORD31 / Fold change (Aza/veh), C12orf56 (ProbeSet 11735607_a_at) / Fold change (ACY-1035/veh), C12orf56 (ProbeSet 11735607_a_at) / Fold change (Aza/veh), FGFR1OP (ProbeSet 11751329_s_at) / Fold change (ACY-1035/veh), FGFR1OP (ProbeSet 11751329_s_at) / Fold change (Aza/veh), VPS36 (ProbeSet 11739960_a_at) / Fold change (ACY-1035/veh), VPS36 (ProbeSet 11739960_a_at) / RFU SYPL1 (11715823_x_at) / Fold change /veh SYPL1 (11715823_x_at) / RFU IGFBP7 (11715501_s_at) / Fold change /veh IGFBP7 (11715501_s_at) / RFU REEP3 (11722064_at) / Fold change /veh REEP3 (11722064_at) / RFU IGLL1 (11728026_x_at) / Fold change /veh IGLL1 (11728026_x_at): dose or concentration left out as unconfirmed
Details: ProbeSet 11727545_at; LIST B

Nc1ccc(-c2cccs2)cc1NC(=O)c1ccc2c(c1)cc(C1CC1)n2CCN1CCOCC1 [ACY-1035] was tested, and the “RFU, PANK3” value was 81.04 RFU.
